row,SMILES,melting point
1,CCC(=O)c1ccc2c(c1)N(C(C)=O)c1ccccc1S2,146 to 147 °C
2,CC(C#N)CNc1ccccc1[N+](=O)[O-] (stereo not drawn),44 to 47 °C
3,CCOC(=O)C1=C(C)N(C)C(C)=C(C(=O)OC(C)C)C1c1cccc([N+](=O)[O-])c1 (stereo not drawn),100 to 101 °C
4,COc1ccc2cc([C@H](C)C(=O)OCC(=O)COC(=O)c3ccc(CO[N+](=O)[O-])cc3)ccc2c1,105 to 107 °C
5,Cc1c(Cl)cc(C(C)(C)C)c(O)c1-c1nc2cc(S(=O)(=O)C(F)(F)F)ccc2[nH]1,174 to 176 °C
6,COc1cccc2c1CCC(C#N)C2O (stereo not drawn),96 to 98 °C
7,CC(C)NC(=O)c1ccc(CCN2CC=C(c3c[nH]c(-c4ccc(F)cc4)c3-c3ccncc3)CC2)cc1,178 to 180 °C
8,CCCc1ccc2nc(C(=O)OCC)cn2n1,54 to 54.5 °C
9,O=C1Nc2ccccc2C1c1nc(Cl)nc2nn(C3CCCC3)cc12 (stereo not drawn),270 to 273 °C
10,COc1ccc(N2CCN(c3c(C)c(C)c4c(c3C)C(c3ccc(F)nc3)C(C)(C)O4)CC2)cc1 (stereo not drawn),87 to 88 °C
11,Cc1oc(-c2ccco2)nc1COc1ccc(Cn2cc(CC(=O)O)c(-c3ccccc3)n2)cn1,135 to 136 °C
12,CC(C)(C)OC(=O)N(C(=O)OC(C)(C)C)c1c(C#N)csc1C(=O)O,159 to 160 °C
13,CCOc1cc(N)c([N+](=O)[O-])cc1C(=O)OC,210 °C
14,COc1ccccc1C1OC2(CCNCC2)N2CCCCC12 (stereo not drawn),185 to 186 °C
15,COc1ccccc1NC(=O)Nc1ccc(C2CCN(C(=O)Nc3ccc(OCC(O)CO)cc3Cl)CC2)cc1 (stereo not drawn),158 to 161 °C
16,NCCNc1ccc2ccccc2n1,124 to 125 °C
17,CCCn1cc(Cc2ccc(C(=O)O)cc2OC)c2cc(CC(C)C(=O)N3CCCC3)ccc21 (stereo not drawn),92 to 100 °C
18,Cc1ccnc(-c2ccccc2)c1C(=O)O,210 to 212 °C
19,CO/C=C(/C(=O)OC)c1cccnc1Oc1cccc(O)c1,163 to 165 °C
20,NS(=O)(=O)c1ccc(C2=C(c3cccc(F)c3F)CCC2)cc1,133 to 134 °C
21,O=C1C(Cl)=C(Nc2ccc(O)cc2)C(=O)c2ccccc21,233 °C
22,O=c1ccn(C2CC(O)C(CNC(c3ccccc3)(c3ccccc3)c3ccccc3)O2)c(=O)[nH]1 (stereo not drawn),132 to 134 °C
23,Cn1cncc1C(O)c1ccc2nc(Cl)nc(-c3cccc(Cl)c3)c2c1 (stereo not drawn),140 °C
24,Cc1ccc(NC(=O)c2ccc(/C=C/C(=O)NO)cc2)cc1Nc1nc(-c2cccnc2)cs1,154 °C
25,CCNC1CCN(c2nc(N3CCOCC3)c3ncnc(N(C)Cc4ccccc4)c3n2)CC1,92 to 94 °C

row,SMILES,melting point
1,O=C(CS(=O)(=O)Cc1cccs1)C12CC3CC(CC(C3)C1)C2,95.5 to 98 °C
2,CCOC(=O)C(Cc1cc(Cl)c(Sc2ccc(OC)c(Cc3ccc(OC)nc3)c2)c(Cl)c1)(NC(C)=O)C(=O)OCC,170 to 171 °C
3,O=C(O)C(=O)c1ccc(SCCOC2CCCCCCC2)cc1,84 to 85 °C
4,Cn1ncc2c1-c1c(Sc3ccccc3)sc(C(=O)O)c1CC2,205 to 206 °C
5,CC(Oc1ccc(-n2cnc3cc(C(F)(F)F)ccc32)cc1)C(=O)O (stereo not drawn),181 to 182 °C
6,CC(=O)NC[C@H]1CN(c2cc(F)c(N3CCC(n4nnc(N5CCN(C)CC5)n4)CC3)c(F)c2)C(=O)O1,184 to 188 °C
7,COc1ccc(Oc2c(N)cc(C(=O)O)cc2S)cc1,182 to 184 °C
8,O=C(O)C(O)=CC(=O)c1cn(Cc2ccc(C(F)(F)F)cc2)c(=O)n(Cc2ccc(C(F)(F)F)cc2)c1=O,176 to 178 °C
9,CNC(=S)C1(c2cccc(C)n2)CCCO1 (stereo not drawn),151 °C
10,CCCCN=C(O)c1c(Cl)c(Cl)c(Sc2ccccc2)c(Cl)c1C(=O)O,159 to 163 °C
11,Oc1c(C(O)(C(F)(F)F)C(F)(F)F)cc(Br)c2ccccc12,112 to 115 °C
12,C#CCN1CC[C@H](O)C1=O,89 to 90 °C
13,CC(C)(C)OC(=O)NC(N)Cc1ccccc1 (stereo not drawn),40 to 50 °C
14,CC(Cl)C(=O)Nc1nc(-c2ccccc2)cs1 (stereo not drawn),98 to 99 °C
15,C=C(C(=O)c1cc(-c2cccs2)ccc1OC)c1ccc(C#N)cc1,86 to 88 °C
16,CCc1cc(C(=O)c2ccccc2Cl)c(-n2c(C)nnc2CNC(=O)Nc2cccc(C(=O)O)c2)s1,178 to 180 °C
17,Oc1ccc(-c2nc3ccccc3nc2-c2ccc(O)cc2)cc1,336 to 338 °C
18,Cc1ccc(N2N=C3c4cc(C(C)O)sc4CCC3CC2=O)cc1 (stereo not drawn),129 to 145 °C
19,COCc1cnc2c(NC(=O)c3c(Cl)cccc3Cl)cc(C)cc2c1-n1ccnc1,99 to 101 °C
20,O=C(O)CCNc1ccc(CNC(=O)C2Cc3ccccc3N2S(=O)(=O)c2ccc(-c3cccc(C(F)(F)F)c3)cc2)cc1 (stereo not drawn),82 °C
21,CCOC(=O)c1sc(Oc2ccccc2)c2c1CCCC2=O,125 to 127 °C
22,FC(F)(F)Oc1cccc(Cn2cnc3c(-c4ccco4)ncnc32)c1,133 to 135 °C
23,CC1(C)CCC(C)(C)c2cc(Sc3ccc(C(=O)O)cc3)ccc21,187 to 188 °C
24,N#Cc1c(N2CCN(C(=O)c3ccco3)CC2)c2cc(F)cnc2n(Cc2cccc(F)c2)c1=O,211 °C
25,O=C1Nc2ccccc2C(c2ccccc2)=NC1NC(=S)c1cccc(C(F)(F)F)c1 (racemic),230 to 232 °C

row,SMILES,melting point
1,Cc1cnn(-c2ccc(C(=O)N3Cc4cccn4Cc4ccccc43)c(Cl)n2)c1,155 to 156 °C
2,CCCCCCCCCCCCCCCCCCOCC(CO)Oc1nccs1 (stereo not drawn),65 to 67 °C
3,CCCCCNc1cccc2c1C(=O)N(C1(C)CCC(=O)NC1=O)C2=O (stereo not drawn),96 to 98 °C
4,O=c1[nH]c2ccccc2n1CCCN1CCN(C(c2ccc(Cl)cc2)c2cccnc2)CC1 (stereo not drawn),183 °C
5,O=C1NC(=O)C(c2c[nH]c3ccccc23)N1 (stereo not drawn),229 to 230 °C
6,Cc1cn(S(C)(=O)=O)c2c1C(=O)CC(c1ccccc1F)C2 (stereo not drawn),130 to 134 °C
7,O=C(CCSC(=O)c1ccccc1)N[C@@H](Cc1ccccc1)C(=O)O,123 to 124 °C
8,CCCCCCCC(O)C(O)Cc1cc(C(N)=O)ccc1C(N)=O (stereo not drawn),118 °C
9,CC(=O)NCC1CN(c2ccc(N3CCN(c4nc5ccc(F)cc5o4)CC3)c(F)c2)C(=O)O1 (stereo not drawn),233 to 234 °C
10,CC(C)(Cc1cccc(Oc2cccc(CC(C)(C)C(=O)O)c2)c1)C(=O)O,84 to 85 °C
11,COCCc1nc2c(N)nc3ccccc3c2n1CCOCCNC(=O)Nc1ccccc1,171 to 174 °C
12,CCc1c(Cl)nc(OCc2ccccc2)nc1OCc1ccccc1,53 to 54 °C
13,CC(C)(C)NC(=S)Nc1cc(Cl)cc(Cl)c1,164 to 165 °C
14,Cc1cc2c(ccc3ccsc32)c2ccccc12,130 to 131 °C
15,C#CCN(c1ccc(C(=O)OC(C)(C)C)cc1)C1CCc2cc3nc(COC)[nH]c(=O)c3cc21 (racemic),191 to 192 °C
16,COc1ccc(-c2csc(NC(=O)COc3ccc(Cl)cc3Cl)n2)cc1,135 to 139 °C
17,C[C@@H](NC(=O)C1CCC1)c1cccc(C(=O)c2ccccc2)c1,90 to 93 °C
18,CCC(C)(COc1nn2nc(C)nc2cc1C)CS(N)(=O)=O (stereo not drawn),194 to 195 °C
19,CC(=O)OCCn1ccc(=O)c(OCc2ccccc2)c1C(OC(C)=O)c1ccccc1F (stereo not drawn),173 to 174 °C
20,CCOC(=O)C(CC)Cc1ccc(NC(=O)Cc2ccc(-n3cccc3)cc2)cc1 (stereo not drawn),100 to 102 °C
21,Clc1ccc2nc(-c3ccccc3)n(CCCN3CCN(C(c4ccccc4)c4ccccc4)CC3)c2c1,198 °C
22,c1ccc2c(c1)[nH]c1c2nc2ncccn21,96 to 98 °C
23,COC(=O)C(c1ccc(Cl)cc1)(c1ccc(Cl)cc1)c1ncc[nH]1,132 °C
24,CCOC(=O)N1c2cc(OC)c(OC)cc2C(=O)C(=CN(C)C)C1C (stereo not drawn),130 to 131 °C
25,CCOCn1c(C(OC(C)=O)c2ccccc2)c(C(C)C)c(=O)[nH]c1=O (stereo not drawn),158 °C

row,SMILES,melting point
1,COc1ccc(-c2ccsc2)c2c1c(CCN(C)C)cn2C,120 to 122 °C
2,COc1cc2c(cc1C)CCC2c1cnc[nH]1 (stereo not drawn),68 to 70 °C
3,COc1ccc(C2Sc3cccc4cccc(c34)N(CCN(C)C)C(=O)C2OC(C)=O)cc1 (stereo not drawn),111 to 112 °C
4,COC(=O)c1ccc(OC)c(OC(C)(C)C)c1,98 to 100 °C
5,Cc1ccc(C(OC2CCN(CC(=O)O)CC2)c2ccccc2)cc1 (stereo not drawn),73.5 to 75 °C
6,Cc1cccc2c1nc(-c1ccccc1F)n2CC(O)C(C)(C)C (stereo not drawn),178 to 179 °C
7,c1ccc2c(c1)oc1nnccc12,120 to 122 °C
8,O=C1CN=C(c2ccccc2Cl)c2ccsc2N1,221 to 223 °C
9,N#Cc1c[nH]c2cc3ccccc3cc2c1=O,> 260 °C
10,CC(C)=CCNc1cccc(-c2ccnc3c(C(=O)c4cccs4)cnn23)c1,116 to 118 °C
11,O=C(O)CCc1oc(-n2ccnc2CO)nc1-c1ccc(Cl)cc1,171 to 173 °C
12,CCOC(=O)c1c(C(F)(F)F)nc(C(F)F)c(C(=O)OC)c1F,40 to 41 °C
13,COc1cccc(Oc2ccc(CCNc3ncnc4nccnc34)cc2)n1,152 to 153 °C
14,CN(C)CCCOc1ccc(C[C@H](NC(=O)[C@@H]2CCCN2S(=O)(=O)c2cn(C)cn2)C(=O)O)cc1,> 200 °C
15,O=C1Cn2ncnc2-c2cc(F)ccc2N1,232 to 238 °C
16,COC(=O)CCCC(=O)c1ccc(OCCCC/C=C/c2ccc(OC)cc2)c(O)c1,78 to 80 °C
17,CC(=O)NC(C)(C)c1ccc(CN2CCN(c3nccs3)CC2)cc1,118 to 120 °C
18,COC[C@@H]1CCCN1S(=O)(=O)c1ccc(Cl)c(COc2cccc3c(-n4ccnc4)cc(C)nc23)c1Cl,66 °C
19,N#CCOc1ccc2cc(-c3cnc(Cc4ccc5ccccc5c4)o3)ccc2c1,155 to 158 °C
20,Cc1ccc(-c2c(N=[N+]=[N-])ncnc2OCCO)cc1,83.5 to 85 °C
21,O=C(Nc1cc(C(F)(F)F)nc(C(F)(F)F)c1)C(=O)Nc1cc(C(F)(F)F)nc(C(F)(F)F)c1,271 to 272 °C
22,N#CSc1c(-c2ncon2)nn(-c2c(Cl)cc(C(F)(F)F)cc2Cl)c1N,195 to 198 °C
23,O=C(O)c1cn(C2CC2F)c2c(F)c(F)c(F)cc2c1=O (stereo not drawn),232 to 235 °C

# From a melting point compilation (Tetko et al.; mined from patent text by program, amines drawn as free bases though some values may be those of a salt)
